# Test results: patent publication US20220287306A1, “METHOD FOR IMPROVING TURFGRASS ABIOTIC STRESS TOLERANCE” (SYNGENTA PARTICATIONS AG, priority 2014, published 2022)
# What was measured:
# Assay type in all cases: in vivo
# cool-season grasses = assay: Phytotoxicity at stated application rates on cool-season grasses; conditions: ASM between about 4 and about 200 g/ha per application
# Ultradwarf Bermudagrass [1] = assay: Turf quality and phytotoxicity on golf course greens (Example 3); conditions: ASM 30.8 g/ha per spray, 15 applications at 14 day intervals
# Text: (§1) Fifteen applications of treatments were made on 14 day intervals through the season (starting in May and extending through October) on Ultradwarf Bermudagrass on golf course greens. The treatments included (1) a Control that included products with the active ingredients of chlorothalonil, fluazinam and azoxystrobin and no ASM and (2) a treatment that included products with the same active ingredients and rates of the Control treatment, but also included 30.8 g/ha rate of ASM for each spray.
# (§2) Turfgrass Samples from the treated plots were taken from a) the ASM treated plots as well b) the Control plots without acibenzolar-s-methyl at two different timings—July 2015 and September 2015. All samples were tested for evapotranspiration at various vapor pressure deficits (VPD) in the growth chamber. The results of the testing are illustrated in FIGS. 9-12.
# warm-season turfgrasses = assay: Abiotic stress and phytotoxicity at stated application rates on warm-season turfgrasses; conditions: ASM between about 4 and about 200 g/ha per application
# Text: As indicated above, the methods of the present invention may be useful in suppressing abiotic stress or stresses in warm-season turfgrasses. In some embodiments of the present invention, ASM may be applied at a rate of between about 4 and about 200 g/ha per application. In further embodiments of the invention, ASM may be applied at a rate between about 12 and about 150 g/ha per application, or between 12 and about 96 g/ha per application, or between about 12 and about 64 g/ha per application, or between about 12 and about 32 g/ha per application, or between about 32 and about 140 g/ha per application, or between about 32 and about 96 g/ha per application, or between about 32 and about 64 g/ha per application, or between about 64 and about 140 g/ha per application, or between about 64 and about 96 g/ha per application, or between about 96 and about 140 g/ha per application.
# Ultradwarf Bermudagrass [2] = assay: Evapotranspiration of treated turfgrass samples at various vapor pressure deficits in the growth chamber (Example 3); conditions: ASM 30.8 g/ha per spray, 15 applications at 14 day intervals, with chlorothalonil, fluazinam and azoxystrobin products; vs Control without ASM; samples July 2015 and September 2015
# Text: as §1, §2
compound,measurement,setting,value
"CSC(=O)c1cccc2nnsc12 [ASM, S-methyl benzo[1,2,3]thiadiazole-7-carbothioate]",phytotoxicity to cool-season grasses,cool-season grasses,unacceptable levels of phytotoxicity
same,phytotoxicity to the turfgrass,Ultradwarf Bermudagrass [1],did not result in any unacceptable phytotoxicity
same,turf quality under drought or heat stress,"Ultradwarf Bermudagrass [1]; with chlorothalonil, fluazinam and azoxystrobin products",improved turf quality
same,phytotoxicity to warm-season turfgrasses,warm-season turfgrasses,avoiding unacceptable phytotoxicity
same,evapotranspiration as VPD increases,Ultradwarf Bermudagrass [2],overall reduced evapotranspiration
